We go through eight compounds from US6613901B2, “2-aminoalkylaminoquinolines as dopamine D4 ligands” (Neurogen Corporation, priority 1998, dated 2003).

Counter-ions that a name gives are not always drawn.

For data set [1], the target named is D4 receptors (Chlorocebus aethiops, UniProt A0A0D9REG7). Kind of data set: D4 receptor binding assay (3H-YM 09151-2). More on the design: species or system African Green monkey. To be noted: Table 1; COS cell pellets with recombinant receptor, 0.5 nM 3H-YM 09151-2; read-out: D4 K1. As for the experimental part:
(§1) Assay for D2 and D4 Receptor Binding Activity
(§2) Pellets of COS cells containing recombinantly produced D2 or D4 receptors from African Green monkey were used for the assays. The sample is homogenized in 100 volumes (w/vol) of 0.05 M Tris HCl buffer at 4° C. and pH 7.4. The sample is then centrifuged at 30,000×g and resuspended and rehomogenized. The sample is then centrifuged as described and the final tissue sample is frozen until use. The tissue is resuspended 1:20 (wt/vol) in 0.05 M Tris HCl buffer containing 100 mM NaCl.

The target of data set [2] is T1, M1 Muscarinic subtype (Homo sapiens, UniProt P11229).
T1 sequence (P11229 1-460): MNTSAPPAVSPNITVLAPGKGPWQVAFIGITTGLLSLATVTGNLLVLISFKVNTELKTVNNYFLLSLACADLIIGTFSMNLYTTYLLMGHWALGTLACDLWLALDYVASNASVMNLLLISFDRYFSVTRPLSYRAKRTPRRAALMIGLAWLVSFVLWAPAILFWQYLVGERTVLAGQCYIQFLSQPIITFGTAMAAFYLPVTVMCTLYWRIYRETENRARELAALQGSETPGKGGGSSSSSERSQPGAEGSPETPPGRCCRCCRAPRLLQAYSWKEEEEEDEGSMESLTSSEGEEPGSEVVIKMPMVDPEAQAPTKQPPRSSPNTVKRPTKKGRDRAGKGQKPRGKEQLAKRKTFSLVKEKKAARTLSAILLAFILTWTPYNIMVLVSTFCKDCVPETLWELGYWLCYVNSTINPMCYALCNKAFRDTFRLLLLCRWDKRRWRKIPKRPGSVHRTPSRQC
Kind of data set: M1 Muscarinic subtype assay per U.S. Pat. No. 5,093,333. The class given is binding. To be noted: Table 1.

For data set [3], the target named is T2, M2 Muscarinic subtype (Homo sapiens, UniProt P08172).
T2 sequence (P08172 1-466): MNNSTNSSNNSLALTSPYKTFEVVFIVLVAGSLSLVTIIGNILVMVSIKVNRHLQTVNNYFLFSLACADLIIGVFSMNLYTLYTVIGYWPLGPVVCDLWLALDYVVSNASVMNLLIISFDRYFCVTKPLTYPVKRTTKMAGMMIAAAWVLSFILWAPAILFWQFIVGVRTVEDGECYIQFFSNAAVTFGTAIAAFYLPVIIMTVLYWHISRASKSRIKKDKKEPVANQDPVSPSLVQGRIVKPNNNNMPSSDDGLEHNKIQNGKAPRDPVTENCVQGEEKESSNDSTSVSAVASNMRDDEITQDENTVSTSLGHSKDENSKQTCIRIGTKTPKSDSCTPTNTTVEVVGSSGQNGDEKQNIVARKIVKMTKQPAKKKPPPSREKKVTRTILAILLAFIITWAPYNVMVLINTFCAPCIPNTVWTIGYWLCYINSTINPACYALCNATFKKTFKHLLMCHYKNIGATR
The experiment in a line: M2 Muscarinic subtype assay per U.S. Pat. No. 5,093,333. Type of data set: binding. The note with it: Table 1.

Data set [4] has as its target T3, D2 receptors (Chlorocebus aethiops, UniProt P52702).
T3 construct: expressed in transfected cells; host or cells: COS cells
Kind of data set: D2 receptor binding assay (3H-YM 09151-2). More on the design: species or system African Green monkey. To be noted: Table 1; COS cell pellets with recombinant receptor, 0.5 nM 3H-YM 09151-2. The procedure:
as §1, §2

Sequence of D4 receptors (A0A0D9REG7 entry or part of it): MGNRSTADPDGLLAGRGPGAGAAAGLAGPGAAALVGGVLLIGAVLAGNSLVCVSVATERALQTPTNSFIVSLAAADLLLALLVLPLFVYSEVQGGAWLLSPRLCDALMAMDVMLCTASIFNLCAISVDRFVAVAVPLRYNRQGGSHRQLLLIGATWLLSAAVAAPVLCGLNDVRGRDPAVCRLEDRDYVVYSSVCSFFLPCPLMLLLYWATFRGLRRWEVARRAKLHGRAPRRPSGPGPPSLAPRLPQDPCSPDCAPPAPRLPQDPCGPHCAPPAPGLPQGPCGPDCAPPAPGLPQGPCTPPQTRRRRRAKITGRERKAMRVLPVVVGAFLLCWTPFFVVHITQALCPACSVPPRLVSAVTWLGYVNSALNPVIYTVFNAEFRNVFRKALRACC
T3 sequence (P52702 whole entry): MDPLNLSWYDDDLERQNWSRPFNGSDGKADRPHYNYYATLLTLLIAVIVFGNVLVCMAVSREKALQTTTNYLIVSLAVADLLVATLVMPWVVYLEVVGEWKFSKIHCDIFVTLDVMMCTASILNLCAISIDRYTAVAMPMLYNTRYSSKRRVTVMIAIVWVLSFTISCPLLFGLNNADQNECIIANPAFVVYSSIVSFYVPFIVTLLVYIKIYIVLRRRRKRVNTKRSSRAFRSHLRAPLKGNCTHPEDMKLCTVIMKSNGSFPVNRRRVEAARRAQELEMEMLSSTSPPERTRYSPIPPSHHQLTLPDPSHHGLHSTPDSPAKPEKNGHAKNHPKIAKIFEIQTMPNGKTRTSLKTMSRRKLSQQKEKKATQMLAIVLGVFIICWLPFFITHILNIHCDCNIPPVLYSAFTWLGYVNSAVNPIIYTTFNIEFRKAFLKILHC

For the compound “(4methyl(2-quinolyl))(2-(4-pyrimidin-2-ylpiperazinyl)ethyl)amine hydrobromide [Compound 11]”, the Ki in data set [1] amounted to 10 nM. For the same compound, the “M1” value in data set [2] is 178 nM. Moreover, the “M2” value in data set [3] is reported as 246 nM.

Consider `c1ccc(N2CCN(CCNC3=Nc4ccccc4CC3)CC2)nc1` [Compound 2, 2-3,4-dihydroquinolyl(2-(4-(2-pyridyl)piperazinyl)ethyl)amine], for which the Ki in data set [4] was over 100 nM.

For “(4-methyl(2-quinolyl))(3-(4-(pyrimidin-2-yl)piperazinyl)propyl)amine [Compound 22]”, the results for the Ki in data set [1] and in data set [4] were 10 nM and 3300 nM, respectively.

For the compound `Fc1cnc(N2CCN(CCNC3=Nc4ccccc4CC3)CC2)nc1` [Compound 3, 2-3,4-dihydroquinolyl(2-(4-(5-fluoropyrimidin-2-yl)piperazinyl)ethyl)amine], the “M1” value in data set [2] is 128 nM. Moreover, the “M2” value in data set [3] was found to be 144 nM.

As for “(3-(4-(2,3-dimethylphenyl)piperazinyl)propyl)-2-quinolylamine [Compound 21]”, the figures for the Ki in data set [1] and in data set [4] were 22 nM and over 100 nM, respectively.

As a reminder, the melting point is the temperature of the solid-liquid transition. Compound `OC1(c2ccccc2)CCN(CCCNC2=Nc3ccccc3CC2)CC1` (as salt: hydrobromid) displayed a melting point of 247 °C.

Regarding `c1cnc(N2CCN(CCNc3ccc4ccccc4n3)CC2)nc1` [Compound 1, (2-(4-pyrimidin-2-ylpiperazinyl)ethyl)-2-quinolylamine], in data set [2], the “M1” value is 264 nM. Besides, in data set [4], the Ki was 2720 nM. For the same compound, the “M2” value in data set [3] came out at 299 nM.

As to `OC1(c2ccc(Cl)cc2)CCN(CCCNC2=Nc3ccccc3CC2)CC1` (as salt: hydrobromid), the melting point was over 260 °C.
